In patent publication US10265318B2, “Medicinal drug with activity against gram positive bacteria, mycobacteria and fungi” (priority 2015, dated 2019):

Key:
bacteria and fungi = assay: Antimicrobial activity, overall comparison of the substances; format: cell-based
[1] = tested on: biofilms of S. aureus ATCC 29213; assay: 24-hour action upon 24-hour biofilms in 96-well plates, CFU count; details: S. aureus ATCC 29213 biofilm
Excerpt: (§1) Biofilms used in testing were produced by 24-hour cultivation in 96-well plates.

[2] = tested on: biofilms of S. aureus MRSA 201/010; assay: as above; details: S. aureus MRSA 201/010 biofilm
Excerpt: as §1

MSSA strain ATCC 29213 = assay: MIC, broth macrodilution (CLSI); format: cell-based, S. aureus; details: planktonic, inoculum 10^5 cfu/mL
[3] = tested on: biofilms of S. aureus MRSA 24/31; assay: 24-hour action upon 24-hour biofilms in 96-well plates, CFU count; details: S. aureus MRSA 24/31 biofilm
Excerpt: as §1

VRSA strain VT-E-25 = assay: MIC, broth macrodilution (CLSI); details: planktonic, inoculum 10^5 cfu/mL
Description: (§2) The MICs were determined using a broth macrodilution method with cation-adjusted Mueller-Hinton broth II (Becton Dickinson) at standard inoculum (10^5 cfu/mL) following the CLSI recommendations.

VRSA strain VT-V-18 = assay: MIC, broth macrodilution (CLSI); details: planktonic, inoculum 10^5 cfu/mL
Description: as §2

VRSA strain VT-A-199 = assay: MIC, broth macrodilution (CLSI); details: planktonic, inoculum 10^5 cfu/mL
Description: as §2

S. aureus MRSA 201/010 = assay: MIC, broth microdilution or agar dilution (CLSI); format: cell-based, Staphylococcus aureus
[4] = tested on: Aspergillus fumigatus ATCC 204305; assay: MIC, broth microdilution or agar dilution (CLSI); format: cell-based; details: A. fumigatus ATCC 204305
[5] = tested on: Candida albicans ATCC 10231; assay: MIC, broth microdilution or agar dilution (CLSI); format: cell-based; details: C. albicans ATCC 10231
S. aureus MRSA 24/31 = assay: MIC, broth microdilution or agar dilution (CLSI); format: cell-based, Staphylococcus aureus

With `O=Cc1cc(Br)cc([N+](=O)[O-])c1[O-].[K+]` [Compound 19, 2-formyl-4-bromo-6-nitro potassium phenolate] the “antimicrobial activity, comparison among the inventive substances” value (shortened to “antimicrobial activity”) (bacteria and fungi) was “best activity”.
In the case of `COc1ccc(CN2C(=O)NC(=O)C(=Cc3cc(Br)cc(Br)c3O)C2=O)cc1` [Compound 15, 1-(4-methoxybenzyl)-5-(3,5-dibromo-2-hydroxybenzylidene) perhydropyrimidine-2.4,6-trione], the “antimicrobial activity” value (bacteria and fungi) was “best activity”.
With `O=Cc1cc(Br)cc(Br)c1[O-].[Na+]` [Compound 17, 2-formyl-4,6-dibromo sodium phenolate] the “antimicrobial activity” value (bacteria and fungi) was “best activity”.
`O=C1NC(=O)C(=Cc2cc(Br)cc(Br)c2O)C(=O)N1` [Compound 1, 5-(3,5-dibromo-2-hydroxybenzylidene) perhydropyrimidine-2.4,6-trione] was tested, and the “decrease of the number of CFU in biofilm” value ([1]; 24-hour action) was 10,000 times, the “decrease of the number of CFU in biofilm” value ([2]; 24-hour action) was 10,000 times and the “MSSA strain MIC, ATCC 29213” value (MSSA strain ATCC 29213) was 0.7 µg/mL. The “decrease of the number of CFU in biofilm” value ([3]; 24-hour action) was 10,000 times, the “VRSA strain MIC, VT-E-25” value (VRSA strain VT-E-25) was 1.5 μg/ml and the “VRSA strain MIC, VT-V-18” value (VRSA strain VT-V-18) was 0.7 µg/mL. For the same compound, the “VRSA strain MIC, VT-A-199” value (VRSA strain VT-A-199) was 0.07 µg/mL and the “antimicrobial activity” value (bacteria and fungi) was “best activity”.
For `CC1(C)SC2C(NC(=O)[C@H](N)c3ccccc3)C(=O)N2C1C(=O)O` (stereo partly drawn) [ampicillin, 6-[[(2R)-aminophenylacetyl]amino]-3,3-dimethyl-7-oxo-4-thia-1-azabicyclo[3.2.0]heptane-2carboxylic acid], the “decrease of the number of CFU in biofilm” value ([1]; 10 mg/l) was 10 times, the “effect on the number of CFU in biofilm” value ([2]; 10 mg/l) was “no effect whatsoever” and the MIC (S. aureus MRSA 201/010) was “no effect”. The MIC [4] was “no effect”, the “effect on the number of CFU in biofilm” value ([3]; 10 mg/l) was “no effect whatsoever” and the MIC [5] was “no effect”. The MIC (S. aureus MRSA 24/31) was “no effect”.
